Source: ChEMBL document CHEMBL5653615 (J Biol Chem, 2013)

Legend:
[1] = molecular target: Casein kinase I isoform gamma-1 (Homo sapiens) (UniProt Q9HCP0); assay: Inhibition of human CK1g1 at 18.6 nM by HotSpot assay relative to control
[2] = molecular target: Tyrosine-protein kinase ABL2 (Homo sapiens) (UniProt P42684); assay: Inhibition of human ABL2 at 1.82 nM by HotSpot assay relative to control
[3] = molecular target: T1, G protein-coupled receptor kinase 3 (Homo sapiens) (UniProt P35626); assay: Inhibition of human GRK3 at 1.82 nM by HotSpot assay relative to control
T1 sequence (whole entry): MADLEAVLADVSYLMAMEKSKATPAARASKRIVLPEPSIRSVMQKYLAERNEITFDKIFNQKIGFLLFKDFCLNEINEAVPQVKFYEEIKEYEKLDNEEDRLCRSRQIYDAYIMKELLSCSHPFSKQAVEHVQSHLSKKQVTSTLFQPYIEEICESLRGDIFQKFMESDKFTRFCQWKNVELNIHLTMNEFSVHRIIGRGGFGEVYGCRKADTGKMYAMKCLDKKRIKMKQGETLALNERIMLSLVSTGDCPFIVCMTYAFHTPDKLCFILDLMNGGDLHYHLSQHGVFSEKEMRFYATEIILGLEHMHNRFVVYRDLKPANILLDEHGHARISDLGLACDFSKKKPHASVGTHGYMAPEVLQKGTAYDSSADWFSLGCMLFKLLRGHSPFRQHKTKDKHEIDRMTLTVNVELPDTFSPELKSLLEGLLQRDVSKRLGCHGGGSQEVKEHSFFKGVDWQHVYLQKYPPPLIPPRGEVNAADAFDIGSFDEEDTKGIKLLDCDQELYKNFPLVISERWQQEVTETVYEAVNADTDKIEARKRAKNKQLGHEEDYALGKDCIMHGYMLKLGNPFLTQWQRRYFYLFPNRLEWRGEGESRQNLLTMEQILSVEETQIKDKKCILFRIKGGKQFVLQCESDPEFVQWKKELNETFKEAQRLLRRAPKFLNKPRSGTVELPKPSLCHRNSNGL

[4] = molecular target: Serine/threonine-protein kinase PAK 5 (Homo sapiens) (UniProt Q9P286); assay: Inhibition of human PAK5 at 1.82 nM by HotSpot assay relative to control
Chain of Serine/threonine-protein kinase PAK 5 (Homo sapiens) (Q9P286 whole entry, looked up): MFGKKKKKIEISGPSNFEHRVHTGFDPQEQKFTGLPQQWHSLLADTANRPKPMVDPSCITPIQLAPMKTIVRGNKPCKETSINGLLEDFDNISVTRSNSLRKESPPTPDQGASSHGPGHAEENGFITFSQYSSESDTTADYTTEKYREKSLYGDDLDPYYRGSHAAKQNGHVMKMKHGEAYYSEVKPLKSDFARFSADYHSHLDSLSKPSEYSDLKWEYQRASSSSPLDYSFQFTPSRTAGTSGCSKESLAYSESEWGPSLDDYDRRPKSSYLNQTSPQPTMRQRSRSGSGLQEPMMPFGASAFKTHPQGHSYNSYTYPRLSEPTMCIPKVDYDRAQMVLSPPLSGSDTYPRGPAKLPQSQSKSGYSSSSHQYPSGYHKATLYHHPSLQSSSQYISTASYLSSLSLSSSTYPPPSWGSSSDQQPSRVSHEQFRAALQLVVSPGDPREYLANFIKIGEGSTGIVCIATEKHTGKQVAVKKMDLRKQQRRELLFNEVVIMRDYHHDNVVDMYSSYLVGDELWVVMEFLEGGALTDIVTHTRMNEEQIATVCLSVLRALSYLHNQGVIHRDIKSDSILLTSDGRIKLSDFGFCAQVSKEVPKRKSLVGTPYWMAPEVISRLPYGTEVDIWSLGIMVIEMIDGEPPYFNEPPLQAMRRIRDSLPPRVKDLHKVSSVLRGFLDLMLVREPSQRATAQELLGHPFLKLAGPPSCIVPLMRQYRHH

[5] = molecular target: T2, 3-phosphoinositide-dependent protein kinase 1 (Homo sapiens) (UniProt O15530); assay: Inhibition of human PDPK1 at 1.82 nM by HotSpot assay relative to control
T2 sequence (whole entry): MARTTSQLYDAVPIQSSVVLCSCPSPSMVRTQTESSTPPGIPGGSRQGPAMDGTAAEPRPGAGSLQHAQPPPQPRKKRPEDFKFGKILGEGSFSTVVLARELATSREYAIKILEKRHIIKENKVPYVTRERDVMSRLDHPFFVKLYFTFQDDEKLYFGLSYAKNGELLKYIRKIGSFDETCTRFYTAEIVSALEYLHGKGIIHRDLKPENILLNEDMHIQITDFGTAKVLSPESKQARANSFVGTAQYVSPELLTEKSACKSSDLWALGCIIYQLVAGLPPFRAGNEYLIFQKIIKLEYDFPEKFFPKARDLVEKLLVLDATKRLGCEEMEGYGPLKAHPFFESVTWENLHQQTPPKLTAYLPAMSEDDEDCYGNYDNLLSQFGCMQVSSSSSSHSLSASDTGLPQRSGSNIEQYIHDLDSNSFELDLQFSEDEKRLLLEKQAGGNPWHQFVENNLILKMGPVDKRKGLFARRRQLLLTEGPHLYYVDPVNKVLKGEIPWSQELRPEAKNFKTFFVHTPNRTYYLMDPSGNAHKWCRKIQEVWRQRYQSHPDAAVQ

[6] = molecular target: T3, Mitogen-activated protein kinase kinase kinase kinase 2 (Homo sapiens) (UniProt Q12851); assay: Inhibition of human GCK at 1.82 nM by HotSpot assay relative to control
T3 sequence (whole entry): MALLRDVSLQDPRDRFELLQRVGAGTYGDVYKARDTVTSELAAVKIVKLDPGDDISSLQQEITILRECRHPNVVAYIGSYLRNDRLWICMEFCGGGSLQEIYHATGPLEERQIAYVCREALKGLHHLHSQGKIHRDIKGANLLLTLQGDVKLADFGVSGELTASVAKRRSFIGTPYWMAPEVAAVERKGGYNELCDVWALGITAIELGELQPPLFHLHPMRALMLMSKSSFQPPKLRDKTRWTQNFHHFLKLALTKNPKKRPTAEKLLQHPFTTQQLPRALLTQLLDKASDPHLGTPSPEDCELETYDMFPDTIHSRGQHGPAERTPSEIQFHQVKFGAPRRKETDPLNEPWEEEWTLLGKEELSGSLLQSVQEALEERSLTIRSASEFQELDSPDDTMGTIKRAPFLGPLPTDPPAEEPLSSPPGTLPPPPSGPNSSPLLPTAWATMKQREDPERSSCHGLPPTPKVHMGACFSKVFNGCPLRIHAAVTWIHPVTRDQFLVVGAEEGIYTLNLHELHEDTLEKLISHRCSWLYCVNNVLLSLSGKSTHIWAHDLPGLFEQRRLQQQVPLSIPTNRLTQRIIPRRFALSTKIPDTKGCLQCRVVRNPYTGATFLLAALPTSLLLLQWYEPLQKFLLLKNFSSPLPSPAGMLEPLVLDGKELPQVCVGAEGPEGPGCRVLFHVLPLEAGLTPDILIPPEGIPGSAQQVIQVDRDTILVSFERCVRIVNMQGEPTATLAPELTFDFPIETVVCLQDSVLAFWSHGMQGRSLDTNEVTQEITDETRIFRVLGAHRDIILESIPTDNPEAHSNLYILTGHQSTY

[7] = molecular target: Casein kinase I isoform delta (Homo sapiens) (UniProt P48730); assay: Inhibition of human CK1d at 1.82 nM by HotSpot assay relative to control
Chain of Casein kinase I isoform delta (Homo sapiens) (P48730 whole entry, looked up, canonical isoform): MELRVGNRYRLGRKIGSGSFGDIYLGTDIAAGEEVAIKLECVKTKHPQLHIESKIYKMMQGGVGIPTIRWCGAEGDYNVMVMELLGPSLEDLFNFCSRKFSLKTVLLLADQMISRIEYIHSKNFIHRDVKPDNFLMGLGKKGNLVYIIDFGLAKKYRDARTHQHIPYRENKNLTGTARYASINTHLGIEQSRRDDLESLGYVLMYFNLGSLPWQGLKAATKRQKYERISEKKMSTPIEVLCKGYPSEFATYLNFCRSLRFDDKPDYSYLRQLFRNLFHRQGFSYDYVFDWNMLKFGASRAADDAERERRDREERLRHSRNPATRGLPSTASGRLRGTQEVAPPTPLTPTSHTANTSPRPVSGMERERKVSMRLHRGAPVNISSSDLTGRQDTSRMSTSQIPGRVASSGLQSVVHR

Chain of Casein kinase I isoform gamma-1 (Homo sapiens) (Q9HCP0 whole entry, looked up, canonical isoform): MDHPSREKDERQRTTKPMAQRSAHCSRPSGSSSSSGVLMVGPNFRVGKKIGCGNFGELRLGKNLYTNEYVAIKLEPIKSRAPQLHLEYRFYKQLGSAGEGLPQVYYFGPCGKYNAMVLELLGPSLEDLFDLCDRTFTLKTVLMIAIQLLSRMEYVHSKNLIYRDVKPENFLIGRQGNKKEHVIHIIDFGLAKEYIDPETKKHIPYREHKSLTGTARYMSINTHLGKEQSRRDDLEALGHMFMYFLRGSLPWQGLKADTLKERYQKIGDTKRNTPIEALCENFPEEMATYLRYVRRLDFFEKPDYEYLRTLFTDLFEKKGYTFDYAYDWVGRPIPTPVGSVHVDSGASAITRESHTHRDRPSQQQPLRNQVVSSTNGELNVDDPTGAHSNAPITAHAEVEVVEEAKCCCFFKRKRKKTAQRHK
Chain of Tyrosine-protein kinase ABL2 (Homo sapiens) (P42684 whole entry): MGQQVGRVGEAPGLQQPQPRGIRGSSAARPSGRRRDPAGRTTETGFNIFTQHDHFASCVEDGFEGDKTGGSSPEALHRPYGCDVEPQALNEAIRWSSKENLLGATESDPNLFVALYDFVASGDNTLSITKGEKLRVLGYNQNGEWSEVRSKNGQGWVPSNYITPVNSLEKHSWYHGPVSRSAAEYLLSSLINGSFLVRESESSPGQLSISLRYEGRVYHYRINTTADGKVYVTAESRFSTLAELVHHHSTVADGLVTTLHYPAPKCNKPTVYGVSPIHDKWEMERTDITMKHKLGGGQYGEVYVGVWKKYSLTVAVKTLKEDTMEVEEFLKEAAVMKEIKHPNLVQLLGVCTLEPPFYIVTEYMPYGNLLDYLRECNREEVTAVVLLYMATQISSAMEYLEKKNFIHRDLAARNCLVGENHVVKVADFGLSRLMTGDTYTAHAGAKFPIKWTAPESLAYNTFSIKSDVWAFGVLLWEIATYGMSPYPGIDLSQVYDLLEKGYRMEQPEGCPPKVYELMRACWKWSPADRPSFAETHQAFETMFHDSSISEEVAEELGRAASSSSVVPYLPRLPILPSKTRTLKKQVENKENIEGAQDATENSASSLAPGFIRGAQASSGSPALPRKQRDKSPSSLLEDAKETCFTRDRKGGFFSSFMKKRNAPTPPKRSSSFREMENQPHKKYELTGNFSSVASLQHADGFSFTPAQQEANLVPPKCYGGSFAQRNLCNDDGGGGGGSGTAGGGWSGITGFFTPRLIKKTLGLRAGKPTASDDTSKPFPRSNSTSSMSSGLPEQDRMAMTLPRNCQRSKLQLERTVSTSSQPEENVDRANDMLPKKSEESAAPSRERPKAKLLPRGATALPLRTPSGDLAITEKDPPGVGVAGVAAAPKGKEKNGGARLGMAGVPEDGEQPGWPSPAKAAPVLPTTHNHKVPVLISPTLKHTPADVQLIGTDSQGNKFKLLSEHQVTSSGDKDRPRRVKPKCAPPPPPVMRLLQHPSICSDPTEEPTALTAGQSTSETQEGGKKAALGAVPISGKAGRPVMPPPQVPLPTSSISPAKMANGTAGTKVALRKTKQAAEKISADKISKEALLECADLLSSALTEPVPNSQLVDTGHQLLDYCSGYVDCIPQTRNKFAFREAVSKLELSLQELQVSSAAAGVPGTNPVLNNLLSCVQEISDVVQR

inhibition [1]	inhibition [2]	inhibition [3]	inhibition [4]	inhibition [5]	inhibition [6]	inhibition [7]	Compound
-0.6%							C[C@]1(O)C[C@@H](c2nc(-c3ccc4ccc(-c5ccccc5)nc4c3)c3c(N)nccn32)C1
	-4.72%	-5.67%	-4.48%	-0.32%	-0.04%	0.92%	C[C@@]1(C(=O)Nc2ccc(F)nc2)CCCN1c1nc(Nc2cc(C3CC3)n[nH]2)c2cccn2n1
